{"source": "patent EP4710775A1", "about": "“COMPOSITION FOR PROMOTING CHILD DEVELOPMENT” (Meiji Holdings Co., Ltd., priority 2023, dated 2024)", "format_in_all_cases": "in vivo, mouse (C57BL/6J)", "key": {"[1]": {"assay": "Measurement of blood glucose level in plasma after weaning (Glucose II-test Wako)", "settings": "two weeks after weaning, males only, NMN n = 5, control n = 7, NMN orally days 3 to 21 after birth, vs control group, p < 0.01", "description": "(§1) β-Nicotinamide mononucleotide (NMN) to be administered to mice was dissolved at a concentration of 100 mg/mL in distilled water and then used for administration.\n(§2) Ten female C57BL/6J lines at day 13 of gestation were purchased. The mice were individually raised in a breeding room at a room temperature of 22 ± 2°C, humidity of 55 ± 15%, light period of 7:00 to 19:00, and dark period of 19:00 to 7:00 until the birth of the pups, and after the birth, group breeding was performed with the pups until weaning, and the born mouse pups were used for the test.\n(§3) All the mouse pups were subjected to sex determination on day 3 after birth, and were divided into distilled water administration (later control group) and NMN administration (later NMN group) so that the number of males and females was approximately half in the littermates. […]\n(§4) The body weights of the mouse pups were measured on the day of weaning, and the pups were divided into a total of two groups: a control group (n = 7) and an NMN group (n = 5) only for males. […]\nUsing the separated plasma, the blood glucose concentration (blood glucose level) was measured by a kit (Glucose II-test Wako: No. 439-90901)."}, "[2]": {"assay": "Measurement of plasma triglyceride concentration after weaning (Triglyceride E-test Wako)", "settings": "two weeks after weaning, males only, NMN n = 5, control n = 7, NMN orally days 3 to 21 after birth, vs control group", "description": "as §1, §2, §3, §4\nUsing the separated plasma, the triglyceride concentration was measured by a kit (Triglyceride E-test Wako: No. 432-40201)."}, "[3]": {"assay": "Open field test: amount of voluntary activity and average moving speed after weaning", "settings": "two weeks after weaning, 10 minutes, males and females combined, n = 20 per group, NMN orally days 3 to 21 after birth, vs control group, p < 0.05", "description": "as §1\nas §2, with “test. […]” for “test.”\n(§5) The body weights of all the mouse pups were measured on the day of weaning, and the pups were divided into a total of four groups: a control group and an NMN group for males and a control group and an NMN group also for females (n = 10 for each group), so that the average values of the body weights were equal. […]\nTwo weeks after weaning, an open field test was performed on all the individuals to measure the amount of voluntary activity and the average moving speed. […] From the obtained moving image, the amount of voluntary activity (total movement distance) and the average moving speed (average of moving speed excluding immobility state) were calculated using dedicated analysis software (SMART3.0: manufactured by Panlab)."}, "[4]": {"assay": "White fat weight measurement (white adipose tissue around the reproductive organ) after weaning", "settings": "two weeks after weaning; relative weight corrected by body weight; males and females combined, n = 10 per group; NMN orally days 3 to 21 after birth; vs control group, p < 0.01", "description": "as §1, §2, §3\nThe body weights of all the mouse pups were measured on the day of weaning, and the pups were divided into a total of four groups: a control group (n = 7) and an NMN group (n = 5) for males, and a control group (n = 3) and an NMN group (n = 5) also for females. After weaning, the mice were normally bred for 2 weeks and dissected, the white adipose tissue around the reproductive organ was extracted, and the weight thereof was measured. […]"}, "[5]": {"assay": "Measurement of grip strength (forelimb) after weaning in mice given NMN in infancy", "settings": "three weeks after weaning; males and females combined, n = 20 per group; corrected by body weight; NMN orally gavaged days 3 to 21 after birth (500 mg/kg BW from day 14); vs control group, p < 0.05", "description": "as §1\nas §2, with “test. […]” for “test.”\nas §5\nThree weeks after weaning, the grip strength (forelimb only) of all the individuals was measured using Grip Strength Meter for Rats & Mice (MK-380CM/F, manufactured by Muromachi Kikai Co., Ltd.). The measurement was performed 10 times per individual, and the maximum value was recorded. […]"}}}
{"smiles": "NC(=O)c1ccc[n+]([C@@H]2O[C@H](COP(=O)([O-])O)[C@@H](O)[C@H]2O)c1", "note": "[NMN, β-Nicotinamide mononucleotide]", "values": [{"measurement": "blood glucose levels", "setting": "[1]", "value": "significantly low as compared to those in the control group"}, {"measurement": "blood triglyceride concentration", "setting": "[2]", "value": "tended to be low as compared to that in the control group"}, {"measurement": "average moving speed", "setting": "[3]; excluding immobility state", "value": "high as compared to those in the control group"}, {"measurement": "amount of voluntary activity", "setting": "[3]; total movement distance", "value": "high as compared to those in the control group"}, {"measurement": "white fat weight", "setting": "[4]", "value": "low as compared to that in the control group"}, {"measurement": "grip strength", "setting": "[5]", "value": "high as compared to that in the control group"}]}
